The values below come from ChEMBL document CHEMBL3879915, “Methods of inhibiting PRMT5” (2014).

What is called EC50 is the concentration needed to bring the measured effect to its halfway point. A word on the IC50: it is the point on the concentration scale where inhibition reaches its midpoint.

The target in experiment [1] is Protein arginine N-methyltransferase 5 (Homo sapiens, UniProt O14744). The experiment can be described thus: Inhibition of PRMT5 in human Z138 cells assessed as decrease in di-methyl arginine levels after 96 hrs by Western blot method. Type of experiment: cell-based.
Protein arginine N-methyltransferase 5, sequence (O14744 whole entry, the tested form may be a part): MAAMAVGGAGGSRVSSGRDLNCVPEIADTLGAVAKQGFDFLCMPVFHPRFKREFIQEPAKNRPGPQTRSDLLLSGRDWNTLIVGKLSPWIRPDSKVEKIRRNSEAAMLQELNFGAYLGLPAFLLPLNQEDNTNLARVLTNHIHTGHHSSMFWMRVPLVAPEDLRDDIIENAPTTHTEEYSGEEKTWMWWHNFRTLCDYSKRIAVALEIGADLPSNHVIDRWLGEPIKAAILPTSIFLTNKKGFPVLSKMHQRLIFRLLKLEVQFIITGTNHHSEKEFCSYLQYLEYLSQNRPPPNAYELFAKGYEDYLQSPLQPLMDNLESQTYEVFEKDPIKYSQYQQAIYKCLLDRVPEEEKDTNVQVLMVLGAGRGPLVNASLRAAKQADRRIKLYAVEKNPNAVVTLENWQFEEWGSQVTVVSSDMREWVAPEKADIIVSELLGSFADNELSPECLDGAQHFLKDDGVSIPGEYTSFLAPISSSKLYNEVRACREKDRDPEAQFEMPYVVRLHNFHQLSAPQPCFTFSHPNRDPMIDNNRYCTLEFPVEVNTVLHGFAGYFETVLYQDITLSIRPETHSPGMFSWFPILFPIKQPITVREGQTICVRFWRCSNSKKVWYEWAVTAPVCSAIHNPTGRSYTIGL
The target of experiment [2] is PRMT5/MEP50 complex (Homo sapiens, UniProt O14744). The experiment can be described thus: Inhibition of recombinant human fetal brain FLAG-tagged PRMT5/full length human testis 6His-tagged MEP50 expressed in baculovirus infected insect Sf9 cells using human histone H4 (1 to 15 residues) as substrate preincubated for 30 mins followed by [3H]-SAM addition.
PRMT5/MEP50 complex, sequence (O14744 whole entry, the tested form may be a part): as above
PRMT5/MEP50 complex, sequence (Q9BQA1 whole entry, further chain, the tested form may be a part): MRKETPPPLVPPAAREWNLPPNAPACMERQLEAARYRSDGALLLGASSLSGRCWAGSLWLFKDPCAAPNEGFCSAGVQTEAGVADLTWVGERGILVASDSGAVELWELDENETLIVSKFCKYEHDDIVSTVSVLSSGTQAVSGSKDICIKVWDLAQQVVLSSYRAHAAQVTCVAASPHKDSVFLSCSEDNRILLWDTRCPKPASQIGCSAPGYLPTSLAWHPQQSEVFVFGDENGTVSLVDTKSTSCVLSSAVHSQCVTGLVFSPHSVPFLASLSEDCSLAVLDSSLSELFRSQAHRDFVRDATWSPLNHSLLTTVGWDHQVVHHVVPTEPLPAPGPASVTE
A short description of experiment [3]: Antiproliferative activity against human Z138 cells assessed as inhibition of cell viability after 5 days by Cell-Titer Glo assay. Type of experiment: functional, cell-based. The note with it: Z-138, 120 h.

The structures appear in SMILES notation. Bounds are passed on as bounds.

`Cn1cnc2ccc(-c3ccnc(NC[C@H](O)CN4CCc5ccccc5C4)c3)cc21`: the EC50 in experiment [1] fell in the range of 101 to 1000 nM; in experiment [3], 1000 to 10000 nM. In addition, the IC50 in experiment [2] is < 100 nM.
As for `Cn1ncc2cnc(-c3cccc(OCC(O)CN4CCc5ccccc5C4)c3)cc21` (configuration not stated), the EC50 in experiment [1] lay in the range of 101 to 1000 nM; in experiment [3], 10000 to 40000 nM. Also, the IC50 in experiment [2] fell in the range of 101 to 1000 nM.
As for `OC(CNc1cc(-c2ccc3ncn(C4COC4)c3c2)ccn1)CN1CCc2ccccc2C1` (configuration not stated), the EC50 in experiment [1] was 101 to 1000 nM; in experiment [3] it was 1000 to 10000 nM. For the same molecule, the IC50 in experiment [2] was < 100 nM.
The like results for `C[C@@H](Oc1cccc2cccnc12)C(=O)NC[C@H](O)CN1Cc2ccccc2C1` were, in that order, 101 to 1000 nM, 1000 to 10000 nM and < 100 nM.
With `Cc1ncc2ccc(-c3cccc(OCC(O)CN4CCc5ccccc5C4)c3)cn12` (configuration not stated), the half-maximal effective concentration (EC50) in experiment [1] and in experiment [3] was 1000 to 10000 nM each time. Also, in experiment [2], the IC50 was < 100 nM.
As to `O=C(COc1cccc2cccnc12)NC[C@H](O)CN1Cc2ccccc2C1`, the results for the concentration giving a half-maximal response (EC50) in experiment [1] and in experiment [3] were 101 to 1000 nM and 1000 to 10000 nM, respectively. Further, the IC50 in experiment [2] is < 100 nM.
As for `Cn1cncc1C(=O)Nc1cccc(OC[C@H](O)CN2CCc3ccccc3C2)c1`, the EC50 in experiment [1] fell in the range of 101 to 1000 nM; in experiment [3], 10000 to 40000 nM. Also, the concentration for half-maximal inhibition (IC50) in experiment [2] fell in the range of 101 to 1000 nM.
Regarding `CN1CCN(C(=O)Cn2ccc3cnc(-c4ccnc(NCC(O)CN5CCc6ccccc6C5)c4)nc32)CC1` (configuration not stated), the figures for the EC50 in experiment [1] and in experiment [3] were < 100 nM and 1000 to 10000 nM, respectively. The IC50 in experiment [2] is < 100 nM.
In the case of `CN(C)S(=O)(=O)c1ccccc1OCC(=O)NCC(O)CN1Cc2ccccc2C1` (configuration not stated), the values for the EC50 in experiment [1] and in experiment [3] were 101 to 1000 nM and 1000 to 10000 nM, respectively. Besides, in experiment [2], the half-maximal inhibitory concentration (IC50) is < 100 nM.
Consider `O=C(COc1cccc2cccnc12)NCC(O)CN1Cc2ccccc2C1` (configuration not stated), for which the EC50 in experiment [1] was 1000 to 10000 nM; in experiment [3], > 20000 nM. Besides, the 50% inhibitory concentration (IC50) in experiment [2] was in the range of 101 to 1000 nM.
Consider `CN1CCC(n2cnc3ccc(-c4ccnc(NCC(O)CN5CCc6ccccc6C5)c4)cc32)C1` (configuration not stated), for which the EC50 lay in the range of 101 to 1000 nM in experiment [1] and 1000 to 10000 nM in experiment [3]. Besides, in experiment [2], the IC50 was < 100 nM.
`O[C@H](COc1cccc(-c2cccc3cccnc23)c1)CN1CCc2ccccc2C1`: the figures for the EC50 in experiment [1] and in experiment [3] were 1000 to 10000 nM and > 20000 nM, respectively. Further, in experiment [2], the IC50 is 101 to 1000 nM.
The like results for `Cn1cnc2ccc(-c3cc(NCC(O)CN4CCc5ccccc5C4)n[nH]3)cc21` (configuration not stated) were, in that order, 101 to 1000 nM, > 20000 nM and 101 to 1000 nM.
For the molecule `O=C(Cn1cnc2ccc(-c3cccc(OCC(O)CN4CCc5ccccc5C4)c3)cc21)N1CCCCC1` (configuration not stated), the EC50 lay within 101 to 1000 nM in experiment [1] and 10000 to 40000 nM in experiment [3]. In addition, the IC50 in experiment [2] fell in the range of 101 to 1000 nM.
As to `Cn1cc2ccc(-c3cccc(NCC(O)CN4CCc5ccccc5C4)c3)nc2n1` (configuration not stated), the concentration giving a half-maximal response (EC50) was in the range of 101 to 1000 nM in experiment [1] and 10000 to 40000 nM in experiment [3]. Besides, the half-maximal inhibitory concentration (IC50) in experiment [2] was < 100 nM.
`O=C(Cn1ccc2cnc(-c3ccnc(NCC(O)CN4CCc5ccccc5C4)c3)nc21)N1CCCCC1` (configuration not stated): the EC50 is < 100 nM in experiment [1] and 101 to 1000 nM in experiment [3]. Besides, the IC50 in experiment [2] was < 100 nM.
For the molecule `CN1CCN(C(=O)Cn2ccc3cnc(-c4cccc(OCC(O)CN5CCc6ccccc6C5)c4)nc32)CC1` (configuration not stated), the values for the EC50 in experiment [1] and in experiment [3] were 101 to 1000 nM and 10000 to 40000 nM, respectively. In addition, the IC50 in experiment [2] fell in the range of 101 to 1000 nM.
`CNC(=O)Cn1ccc2cnc(-c3ccnc(NCC(O)CN4CCc5ccccc5C4)c3)nc21` (configuration not stated): the figures for the EC50 in experiment [1] and in experiment [3] were 101 to 1000 nM and 1000 to 10000 nM, respectively. The IC50 in experiment [2] was < 100 nM.
As to `O[C@@H](COc1cccc(-c2cccc3cccnc23)c1)CN1CCc2ccccc2C1`, the half-maximal effective concentration (EC50) in experiment [1] lay within 101 to 1000 nM; in experiment [3], 1000 to 10000 nM. The IC50 in experiment [2] is < 100 nM.
For the molecule `O=C(COc1ccccc1-c1cc[nH]n1)NCC(O)CN1Cc2ccccc2C1` (configuration not stated), the results for the EC50 in experiment [1] and in experiment [3] were 101 to 1000 nM and > 20000 nM, respectively. In addition, the half-maximal inhibitory concentration (IC50) in experiment [2] lay within 101 to 1000 nM.
For `CC(=O)N1CCC(n2ccc3cnc(-c4ccnc(NCC(O)CN5CCc6ccccc6C5)c4)nc32)CC1` (configuration not stated), the results for the EC50 in experiment [1] and in experiment [3] were < 100 nM and 101 to 1000 nM, respectively. Also, the IC50 in experiment [2] is < 100 nM.
For the molecule `O=C(NCC(O)CN1Cc2ccccc2C1)c1cccc(-c2ccccn2)c1` (configuration not stated), the EC50 in experiment [1] was 1000 to 10000 nM; in experiment [3], > 20000 nM. Besides, in experiment [2], the half-maximal inhibitory concentration (IC50) lay in the range of 101 to 1000 nM.
The corresponding values for `CNC(=O)Cn1cnc2ccc(-c3cccc(OCC(O)CN4CCc5ccccc5C4)c3)cc21` (configuration not stated) are 1000 to 10000 nM, 1000 to 10000 nM and 101 to 1000 nM.
Consider `CC(=O)N(CC(O)CN1CCc2ccccc2C1)c1cccc(-c2ccc3ncn(C)c3c2)c1` (configuration not stated), for which the figures for the EC50 in experiment [1] and in experiment [3] were 101 to 1000 nM and 10000 to 40000 nM, respectively. Moreover, the half-inhibitory concentration (IC50) in experiment [2] is < 100 nM.
`O=C(Cn1cnc2ccc(-c3cccc(OCC(O)CN4CCc5ccccc5C4)c3)cc21)N1CCCC1` (configuration not stated): the concentration giving a half-maximal response (EC50) in experiment [1] fell in the range of 101 to 1000 nM; in experiment [3], 10000 to 40000 nM. The half-maximal inhibitory concentration (IC50) in experiment [2] was in the range of 101 to 1000 nM.
For the molecule `Cn1cnc2cc(-c3cc(NCC(O)CN4CCc5ccccc5C4)n[nH]3)ccc21` (configuration not stated), the 50% effective concentration (EC50) in experiment [1] lay within 101 to 1000 nM; in experiment [3] it was 1000 to 10000 nM. In experiment [2], the concentration for half-maximal inhibition (IC50) fell in the range of 101 to 1000 nM.
Turning to `OC(COc1cccc(-c2ncc3ccn(C4CCNCC4)c3n2)c1)CN1CCc2ccccc2C1` (configuration not stated), the concentration for a half-maximal effect (EC50) in experiment [1] fell in the range of 101 to 1000 nM; in experiment [3] it was 1000 to 10000 nM. In experiment [2], the IC50 is < 100 nM.
`O=C(Cn1cnc2ccc(-c3cccc(OCC(O)CN4CCc5ccccc5C4)c3)cc21)N1CCOCC1` (configuration not stated): the concentration giving a half-maximal response (EC50) in experiment [1] and in experiment [3] was 1000 to 10000 nM in each case. For the same molecule, the IC50 in experiment [2] was in the range of 101 to 1000 nM.
Consider `CN1CCN(C(=O)Cn2cnc3ccc(-c4cccc(OCC(O)CN5CCc6ccccc6C5)c4)cc32)CC1` (configuration not stated), for which the concentration giving a half-maximal response (EC50) in experiment [1] fell in the range of 101 to 1000 nM; in experiment [3], 10000 to 40000 nM. The half-maximal inhibitory concentration (IC50) in experiment [2] was 101 to 1000 nM.
Consider `OC(COc1cccc(-c2ccc3ncn(C4COC4)c3c2)c1)CN1CCc2ccccc2C1` (configuration not stated), for which the EC50 in experiment [1] is 101 to 1000 nM; in experiment [3] it was 10000 to 40000 nM. Besides, the 50% inhibitory concentration (IC50) in experiment [2] was < 100 nM.
The like results for `OC(CNc1cc(-c2ncc3ccn(C4CCNCC4)c3n2)ccn1)CN1CCc2ccccc2C1` (configuration not stated) were, in that order, < 100 nM, 101 to 1000 nM and < 100 nM.
Take `OC(CNc1cc(-c2ccc3ncn(C4CCOCC4)c3c2)ccn1)CN1CCc2ccccc2C1` (configuration not stated): the values for the 50% effective concentration (EC50) in experiment [1] and in experiment [3] were 101 to 1000 nM and 1000 to 10000 nM, respectively. The half-inhibitory concentration (IC50) in experiment [2] is < 100 nM.
For `CN1CCC(n2cnc3ccc(-c4ccnc(NCC(O)CN5CCc6ccccc6C5)c4)cc32)CC1` (configuration not stated), the concentration for a half-maximal effect (EC50) was 101 to 1000 nM in experiment [1] and 1000 to 10000 nM in experiment [3]. Besides, the IC50 in experiment [2] was < 100 nM.
Take `OC(CNc1cc(-c2ncc3ccn(C4CNC4)c3n2)ccn1)CN1CCc2ccccc2C1` (configuration not stated): the values for the EC50 in experiment [1] and in experiment [3] were 101 to 1000 nM and 1000 to 10000 nM, respectively. Moreover, the IC50 in experiment [2] is < 100 nM.
Take `CC(=O)N1CCC(n2cnc3ccc(-c4ccnc(NCC(O)CN5CCc6ccccc6C5)c4)cc32)CC1` (configuration not stated): the 50% effective concentration (EC50) in experiment [1] was 101 to 1000 nM; in experiment [3], 1000 to 10000 nM. Further, the IC50 in experiment [2] fell in the range of 101 to 1000 nM.
As for `OC(CNc1cc(-c2ccc3ncn(C4CCNCC4)c3c2)ccn1)CN1CCc2ccccc2C1` (configuration not stated), the EC50 is 101 to 1000 nM in experiment [1] and 1000 to 10000 nM in experiment [3]. The IC50 in experiment [2] is < 100 nM.
As to `CC(=O)N1CCC(n2ccc3cnc(-c4cccc(OCC(O)CN5CCc6ccccc6C5)c4)nc32)CC1` (configuration not stated), the 50% effective concentration (EC50) was in the range of 101 to 1000 nM in experiment [1] and 1000 to 10000 nM in experiment [3]. Also, the IC50 in experiment [2] was in the range of 101 to 1000 nM.
As for `C[C@H](Oc1cccc2cccnc12)C(=O)NC[C@@H](O)CN1Cc2ccccc2C1`, the figures for the 50% effective concentration (EC50) in experiment [1] and in experiment [3] were 101 to 1000 nM and > 20000 nM, respectively. Also, the IC50 in experiment [2] lay in the range of 101 to 10000 nM.
`Cn1cnc2ccc(-c3ccnc(NC[C@@H](O)CN4CCc5ccccc5C4)c3)cc21`: the EC50 in experiment [1] and in experiment [3] was 1000 to 10000 nM each time. Further, in experiment [2], the IC50 fell in the range of 101 to 1000 nM.
